No end group written: not given here.
Assays:
C. elegans [1] = experiment: Single worm attraction assay (SWAA) of ascarosides; type: in vivo; details: for dwell time in cue vs vehicle: 1 μM, in words
Protocol: The spot retention assay was adapted to allow for better characterization of individual worm behavior and robust interrogation of attraction to small molecules. The attractiveness of 1 μM ascr #8 (FIG. 11A) were compared across multiple strains of C. elegans (the wild-type N2 strain, the high incidence of male him-5 and him-8 strains, and the chemosensory cilia defective osm-3), using the novel behavioral assay, the single worm attraction assay (SWAA) (FIG. 11A). In this assay, individual animals were placed directly into the spot of the ascaroside cue (A) while simultaneously removing any potential of male-male contact. […] Likewise, a vehicle control (V) is also included, to account of any changes in dwell time that are driven by the components of the vehicle. The outer forty wells of a 48-well suspension culture plate (Olympus Plastics, Cat #: 25-103) were seeded with 200 μL of standard NGM agar. To prepare the plates for the assay, they were acclimated to room temperature, at which point each well was seeded with 65 μL of OP50 E. coli. The assay plates were then transferred to a 37° C. incubator with the lid tilted for 4 h to allow the bacterial culture to dry on the agar. Once the bacterial culture dried, the lid was replaced the plate was stored at 20° C. until used in the assay. Fifty to sixty L4 worms were segregated by sex and stored at 20° C. for 5 h to overnight to be assayed as young adults. 0.8 μL of either vehicle control or ascaroside #8 was placed in the center of the well corresponding to that condition within the quadrant being tested, following a random block design (FIG. 11A). A single worm was placed in each of the 10 wells to be assayed, and the plate was transferred to a light source and camera and recorded for 15 m. […] Raw dwell time values were calculated by subtracting the time a worm exited the cue (center of the well in spatial controls), from the time it entered, as in the SRA. This was determined per visit, and the average dwell time was calculated for each animal in the quadrant. Averages of the four-quadrant means were determined per plate, and a minimum of five plates were assayed per strain/condition. The mean raw dwell time across five plates was calculated and used for statistical analyses and graphical display. […] An “attractive visit” was first determined for each plate as any visit greater than two standard deviations above the mean dwell time within the vehicle control for that plate. Any individual visit meeting this threshold was scored as a “1”, and any below was scored a “0”. The percent visits per-worm that were attractive was determined, and the average of each quadrant taken. […] The average percent of attractive visits across five plates was calculated and used for statistical analyses and graphical display.

C. elegans [2] = experiment: Drop avoidance assay of ascr #8; type: in vivo; details: in words
Protocol: Because the defect in male response to ascr #8 was significant, and the SWAA was designed to detect attractive behaviors, it was sought to determine if flp-3 loss-of-function (lof) animals were in fact avoiding ascr #8. Using a previously described drop avoidance assay, forward moving animals were exposed to a drop of either vehicle control or ascr #8 and scored the avoidance index. […] The hermaphroditic behavior was unaffected by the loss of flp-3. (FIG. 12F).
Assays were performed as described previously in Chute, C. D. & Srinivasan, J. Semin. Cell Dev. Biol. 33, 18-24 (2014); Chute, C. D. et al. Nat. Commun. 10, 3186 (2019); and Hilliard, M. A. et al., EMBO J. 23, 1101-1111 (2004). Fifty to sixty L4 worms were segregated by sex and stored at 20° C. for 5 h to overnight to be assayed as young adults. One to four hours prior to the assay, the lids of unseeded plates were tilted to allow any excess moisture to evaporate off the plates. At the time of the assay, 10 or more animals were transferred onto each of the dried, unseeded plates. A drop of either water or 1 μM ascr #8 was placed on the tail of forward moving animals, and their response was scored as either an avoidance response, or no response. The total number of avoidances was divided by the total number of drops to generate an avoidance index for that plate. This was repeated for at least 10 plates over at least three different days.

NPR-10B = target: T1, NPR-10B (Caenorhabditis elegans, UniProt Q6EUU1); experiment: In vitro GPCR activation assay (CHO-K1 cells, aequorin, human Gα16), NPR-10B; type: cell-based, C. elegans; details: in words
T1 sequence (Q6EUU1 1-362): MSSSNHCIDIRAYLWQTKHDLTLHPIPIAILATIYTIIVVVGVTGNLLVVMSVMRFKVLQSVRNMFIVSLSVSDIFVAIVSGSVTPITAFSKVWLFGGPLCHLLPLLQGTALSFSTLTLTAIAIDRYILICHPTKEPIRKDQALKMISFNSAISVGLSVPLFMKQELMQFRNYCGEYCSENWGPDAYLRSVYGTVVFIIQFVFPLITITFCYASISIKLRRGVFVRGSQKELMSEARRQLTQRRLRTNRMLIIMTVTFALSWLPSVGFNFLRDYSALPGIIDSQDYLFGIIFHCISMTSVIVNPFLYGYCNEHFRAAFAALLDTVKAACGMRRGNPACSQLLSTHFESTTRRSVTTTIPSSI
Protocol: (§1) Using Chinese hamster ovarian (CHO) cell cultures stably expressing the promiscuous G protein, Gα16, and the calcium reporter, aequorin, it was observed that both isoforms of NPR-10 are activated by seven of the ten FLP-3 peptides, with half-maximal effective concentrations (EC50) in the nM range (FIG. 14A-FIG. 14H, Table V). […] This peptide contains an R-to-K mutation within the C-terminal motif, which may explain the lack of receptor activation.
(§2) The GPCR activation assay was performed as previously described Van Sinay, E. et al. Proc. Natl Acad. Sci. USA 114, E4065-e4074 (2017) and Peymen, K. et al. PLoS Genet. 15, e1007945 (2019). Briefly, npr-10 and frpr-16 cDNAs were cloned into the pcDNA3.1 TOPO expression vector (Thermo Fisher Scientific). A CHO-K1 cell line (PerkinElmer, ES-000-A24) stably expressing apo-aequorin targeted to the mitochondria (mtAEQ) and human Gα16 was transiently transfected with the receptor cDNA construct or the empty pcDNA3.1 vector using Lipofectamine LTX and Plus reagent (Thermo Fisher Scientific). Cells were shifted to 28° C. one day later and allowed to incubate for 24 h. On the day of the assay, cells were collected in BSA medium (DMEM/Ham's F12 with 15 mM HEPES, without phenol red, 0.1% BSA) and loaded with […] coelenterazine h (Thermo Fisher Scientific) for 4 h at room temperature. The incubated cells were then added to synthetic peptides dissolved in DMEM/BSA, and luminescence was measured for 30 s at […] using a Mithras LB940 (Berthold Technologies) or MicroBeta LumiJet luminometer (PerkinElmer). After 30 s of readout, 0.1% triton X-100 was added to lyse the cells, resulting in a maximal calcium response that was measured for 10 s. After initial screening, concentration-response curves were constructed for HPLC-purified FLP-3 peptides by subjecting the transfected cells to each peptide in a concentration range from 1 pM to 10 μM. Cells transfected with an empty vector were used as a negative control. Assays were performed in triplicate on at least two independent days. Concentration-response curves were fitted using Prism v. 7 (nonlinear regression analysis with a sigmoidal concentration-response equation).

FRPR-16 = target: T2, FRPR-16 (Caenorhabditis elegans, UniProt Q21957); experiment: In vitro GPCR activation assay (CHO-K1 cells, aequorin, human Gα16), FRPR-16; type: cell-based, C. elegans; details: calcium/aequorin luminescence in transfected CHO-K1 cells
T2 sequence (Q21957 1-340): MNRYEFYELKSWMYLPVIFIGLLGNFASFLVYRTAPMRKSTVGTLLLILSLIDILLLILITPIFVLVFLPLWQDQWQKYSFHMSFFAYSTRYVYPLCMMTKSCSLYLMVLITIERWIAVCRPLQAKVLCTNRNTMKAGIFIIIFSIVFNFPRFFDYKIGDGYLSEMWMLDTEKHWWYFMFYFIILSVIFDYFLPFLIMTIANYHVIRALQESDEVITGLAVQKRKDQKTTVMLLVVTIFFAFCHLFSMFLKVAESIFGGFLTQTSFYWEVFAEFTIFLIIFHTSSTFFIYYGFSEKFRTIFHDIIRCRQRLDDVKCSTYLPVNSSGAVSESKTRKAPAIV
Protocol: as §2

NPR-10A = experiment: In vitro GPCR activation assay (CHO-K1 cells, aequorin, human Gα16), NPR-10A; type: cell-based, C. elegans; details: in words
Protocol: as §1
The GPCR activation assay was performed as previously described Van Sinay, E. et al. Proc. Natl Acad. Sci. USA 114, E4065-e4074 (2017) and Peymen, K. et al. PLoS Genet. 15, e1007945 (2019). Briefly, npr-10 and frpr-16 cDNAs were cloned into the pcDNA3.1 TOPO expression vector (Thermo Fisher Scientific). A CHO-K1 cell line (PerkinElmer, ES-000-A24) stably expressing apo-aequorin targeted to the mitochondria (mtAEQ) and human Gα16 was transiently transfected with the receptor cDNA construct or the empty pcDNA3.1 vector using Lipofectamine LTX and Plus reagent (Thermo Fisher Scientific). […] The incubated cells were then added to synthetic peptides dissolved in DMEM/BSA, and luminescence was measured for 30 s at […] using a Mithras LB940 (Berthold Technologies) or MicroBeta LumiJet luminometer (PerkinElmer). After 30 s of readout, 0.1% triton X-100 was added to lyse the cells, resulting in a maximal calcium response that was measured for 10 s. […]

## C[C@H](CC/C=C/C(=O)Nc1ccc(C(=O)O)cc1)O[C@@H]1O[C@@H](C)[C@H](O)C[C@H]1O [ascr #8]
C. elegans [1]; hermaphrodites, all strains
  dwell time in cue vs vehicle: significantly less time in ascr #8 than the vehicle
C. elegans [1]; males, wild-type and him strains
  dwell time in cue vs vehicle: significant increase in the amount of time spent within ascr #8 spot compared to the vehicle control
C. elegans [1]; males, 1 μM ascr #8
  attractive visits to the cue: 30-45%
C. elegans [2]; hermaphrodites
  avoidance of the cue: avoid
C. elegans [2]; wild-type males, 1 μM ascr #8
  avoidance of the cue: did not avoid the cue

## SADDSAPFGTMRF-NH2 [FLP-3-8, SADDSAPFGTMRFamide]
NPR-10B
  activation of NPR-10 (NPR-10B): did not activate
FRPR-16
  EC50: 1600 nM
NPR-10A
  activation of NPR-10A: did not activate

Source: patent US20220380430A1, “Non-Transgenic Functional Rescue of Neuropeptides” (Worcester Polytechnic Institute, priority 2021, published 2022)
